Assay results taken from ChEMBL document CHEMBL4627301, “Discovery of novel hydroxyamidine derivatives as indoleamine 2,3-dioxygenase 1 inhibitors with in vivo anti-tumor efficacy” (Bioorg Med Chem Lett, 2020).
The source made the active and inactive calls. The rule behind the calls is not given here.

Key:
[1] = target: T1, Indoleamine 2,3-dioxygenase 1 (Homo sapiens, UniProt P14902); assay: Inhibition of IDO1 in IFN-gamma stimulated human HeLa cells assessed as reduction in kynurenine formation using L-tryptophan as substrate incubated for 24 hrs by UV-spectrophotometry; format: cell-based
T1 sequence (P14902 whole entry): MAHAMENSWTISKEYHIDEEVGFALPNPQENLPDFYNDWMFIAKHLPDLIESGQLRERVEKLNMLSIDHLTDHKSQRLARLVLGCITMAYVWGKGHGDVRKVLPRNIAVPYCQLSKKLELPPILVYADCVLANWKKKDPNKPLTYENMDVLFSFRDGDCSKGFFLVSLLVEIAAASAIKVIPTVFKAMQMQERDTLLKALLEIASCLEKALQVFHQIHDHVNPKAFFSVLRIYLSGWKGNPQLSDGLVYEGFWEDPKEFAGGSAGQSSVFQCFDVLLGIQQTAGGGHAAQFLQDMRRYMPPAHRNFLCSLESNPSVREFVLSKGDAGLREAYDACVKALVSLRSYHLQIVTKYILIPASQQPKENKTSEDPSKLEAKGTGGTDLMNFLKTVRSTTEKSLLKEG

[2] = target: T1, Indoleamine 2,3-dioxygenase 1; assay: Inhibition of IDO1 (unknown origin) assessed as reduction in kynurenine formation using L-tryptophan as substrate incubated for 60 mins by fluorescence based assay
[3] = test system: Lewis lung carcinoma cell line; assay: Antitumor activity against mouse LLC cells xenografted in C57BL/6 mouse assessed as tumor growth inhibition at 100 mg/kg, po administered bid for 14 days and measured for 14 days; format: functional, organism-based
[4] = Toxicity in C57BL/6 mouse xenografted with mouse LLC cells assessed as body weight loss at 100 mg/kg, po administered bid for 14 days and measured for 14 days; format: organism-based, Lewis lung carcinoma; conditions: in vivo, 336 h

SMILES	EC50 [1]	IC50 [2]	TGI [3]	Activity [4]
O=S(=O)(CCNc1nonc1/C(=N/O)Nc1ccc(F)c(Br)c1)N1CCC1	0.143 µM	0.191 µM		
C#CCNS(=O)(=O)CCNc1nonc1/C(=N/O)Nc1ccc(F)c(Br)c1	0.033 µM	0.218 µM		
N=S1(=O)CC(Nc2nonc2/C(=N/O)Nc2ccc(F)c(Br)c2)C1 (stereo unspecified)	0.053 µM	0.208 µM		
O=S(=O)(CCNc1nonc1/C(=N/O)Nc1ccc(F)c(Br)c1)NCC(F)(F)F	0.268 µM	0.14 µM		
O=S1(=O)CC(Nc2nonc2/C(=N/O)Nc2ccc(F)c(Br)c2)C1	0.059 µM	0.099 µM		
NS(=O)(=O)NCCNc1nonc1/C(=N/O)Nc1ccc(F)c(Br)c1			Active	
CN(C)S(=O)(=O)CCCNc1nonc1/C(=N/O)Nc1ccc(F)c(Br)c1	0.02 µM	0.097 µM		
[O-][S+]1CC(Nc2nonc2/C(=N/O)Nc2ccc(F)c(Br)c2)C1 (stereo unspecified)	0.079 µM	0.212 µM		
N#CN=S1CC(Nc2nonc2/C(=N/O)Nc2ccc(F)c(Br)c2)C1 (stereo unspecified)	0.073 µM	0.069 µM		

More lines, main results first:

EC50 [1]	IC50 [2]	SMILES	TGI [3]	Activity [4]
> 0.8 µM	0.135 µM	NNS(=O)(=O)CCNc1nonc1/C(=N/O)Nc1ccc(F)c(Br)c1		
> 0.8 µM	0.126 µM	O=S(=O)(CCNc1nonc1/C(=N/O)Nc1ccc(F)c(Br)c1)NO		
0.101 µM	0.218 µM	NS(=O)(=O)NNc1nonc1/C(=N/O)Nc1ccc(F)c(Br)c1		
0.011 µM	0.071 µM	NS(=O)(=O)CCNc1nonc1/C(=N/O)Nc1ccc(F)c(Br)c1	Active	Non-Toxic
0.556 µM	0.108 µM	NNc1nonc1/C(=N/O)Nc1ccc(F)c(Br)c1		
0.015 µM	0.126 µM	NS(=O)(=O)CCCNc1nonc1/C(=N/O)Nc1ccc(F)c(Br)c1		
0.268 µM	0.312 µM	O=S(=O)(CCNc1nonc1/C(=N/O)Nc1ccc(F)c(Br)c1)NCC1CC1		
> 0.8 µM	0.609 µM	CS(=O)(=O)NNc1nonc1/C(=N/O)Nc1ccc(F)c(Br)c1		
0.017 µM	0.105 µM	CN(C)S(=O)(=O)CCNc1nonc1/C(=N/O)Nc1ccc(F)c(Br)c1		
0.027 µM	0.087 µM	NS(=O)(=O)CCONc1nonc1/C(=N/O)Nc1ccc(F)c(Br)c1		
0.041 µM	0.095 µM	CCNS(=O)(=O)CCNc1nonc1/C(=N/O)Nc1ccc(F)c(Br)c1		
